Laboratory results as given in the supplement of paper PMC10307832.

Experiments:
Experiment in all cases: relative viability (nuclei count vs DMSO), 5 days (fraction); higher = more cells survive
[1] = compound: C[As](C)SC[C@H](NC(=O)CC[C@H](N)C(=O)O)C(=O)NCC(=O)O [Darinaparsin] + CC1(C)CCC(c2ccc(Cl)cc2)=C(CN2CCN(c3ccc(C(=O)NS(=O)(=O)c4ccc(N[C@H](CCN5CCOCC5)CSc5ccccc5)c(S(=O)(=O)C(F)(F)F)c4)cc3)CC2)C1 [Navitoclax] (partner 0.5 µM)
Method in brief: (§1)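 Relative viability equals treated-well nuclei counts divided by vehicle-well nuclei counts. Counts came from 4× images of lung cancer cell lines grown in 1536-well plates for 5 days after pin-tool dosing on the day after seeding. Dosing used one drug alone or a fixed anchor-drug dose plus five library-drug doses (not always all listed) in √10 steps, and values are medians of duplicate plates.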

QS11 + Alpelisib = compound: C1CC2=C(C1)C=C(C=C2)OC3=NC(=C4C(=N3)N(C=N4)CC5=CC=C(C=C5)C6=CC=CC=C6)N[C@@H](CC7=CC=CC=C7)CO [QS11] + Cc1nc(NC(=O)N2CCC[C@H]2C(N)=O)sc1-c1ccnc(C(C)(C)C(F)(F)F)c1 [Alpelisib] (partner 2 µM)
Method in brief: as §1

AZ628 + Tozasertib = compound: CC1=C(C=C(C=C1)NC(=O)C2=CC(=CC=C2)C(C)(C)C#N)NC3=CC4=C(C=C3)N=CN(C4=O)C [AZ628] + Cc1cc(Nc2cc(N3CCN(C)CC3)nc(Sc3ccc(NC(=O)C4CC4)cc3)n2)n[nH]1 [Tozasertib] (partner 0.1 µM)
Method in brief: as §1

Darinaparsin + AZD7762 = compound: C[As](C)SC[C@H](NC(=O)CC[C@H](N)C(=O)O)C(=O)NCC(=O)O [Darinaparsin] + NC(=O)Nc1cc(-c2cccc(F)c2)sc1C(=O)N[C@H]1CCCNC1 [AZD7762] (partner 0.2 µM)
Method in brief: as §1

Cell Line | relative viability ([1]; first compound 0.08 µM) | relative viability ([1]; first compound 0.8 µM) | relative viability ([1]; first compound 2.53 µM) | relative viability ([1]; first compound 8 µM) | relative viability (QS11 + Alpelisib; first compound 0.08 µM) | relative viability (QS11 + Alpelisib; first compound 0.253 µM) | relative viability (QS11 + Alpelisib; first compound 0.8 µM) | relative viability (QS11 + Alpelisib; first compound 2.53 µM) | relative viability (QS11 + Alpelisib; first compound 8 µM) | relative viability (AZ628 + Tozasertib; first compound 0.08 µM) | relative viability (AZ628 + Tozasertib; first compound 0.253 µM) | relative viability (AZ628 + Tozasertib; first compound 0.8 µM) | relative viability (AZ628 + Tozasertib; first compound 2.53 µM) | relative viability (AZ628 + Tozasertib; first compound 8 µM) | relative viability (Darinaparsin + AZD7762; first compound 0.08 µM) | relative viability (Darinaparsin + AZD7762; first compound 0.8 µM) | relative viability (Darinaparsin + AZD7762; first compound 2.53 µM) | relative viability (Darinaparsin + AZD7762; first compound 8 µM)
NCI-H1299 | 1.03 | 1.08 | 1.04 | 1.1 | 1.09 | 1.1 | 1.02 | 0.962 | 1.05 | – | – | – | – | – | – | – | – | –
NCI-H522 | – | – | – | – | – | – | – | – | – | 0.578 | 0.547 | 0.542 | 0.523 | 0.57 | 0.764 | 0.895 | 0.809 | 0.883
NCI-H1648 | – | – | – | – | – | – | – | – | – | 0.624 | 0.615 | 0.613 | 0.539 | 0.427 | – | 0.65 | – | 0.691
NCI-H1792 | 1.03 | 0.652 | 0.393 | 0.665 | – | 0.708 | 0.539 | 0.609 | 0.785 | – | – | – | – | – | 0.697 | 0.624 | – | 0.797
A549 | 1.42 | 1.29 | 1.16 | 1.33 | 0.912 | 0.757 | 0.691 | 0.451 | 0.215 | – | – | – | – | – | – | – | – | –
NCI-H358 | – | – | – | – | 0.914 | 0.857 | 1.02 | 1.5 | 1.35 | 0.123 | 0.114 | 0.1 | 0.117 | 0.0782 | 0.478 | 0.581 | 0.591 | 0.522
NCI-H2009 | 1.35 | 1.11 | 1.11 | 1.06 | 1.18 | 1.19 | 1.12 | 0.969 | 0.999 | 0.667 | 0.571 | 0.599 | 0.569 | 0.298 | – | – | – | –
COR-L 105 | 0.883 | 0.709 | – | 0.82 | 0.931 | 0.946 | 1.13 | 0.745 | 0.771 | 0.387 | 0.374 | 0.359 | 0.315 | 0.376 | – | – | – | –
EBC-1 | 0.4 | 0.351 | 0.375 | 0.352 | 0.932 | 0.77 | 0.76 | 0.816 | 0.667 | – | – | – | – | – | – | – | – | –
IA-LM | 1.15 | 0.974 | 0.969 | 0.739 | 0.665 | 0.747 | 0.378 | 0.826 | 0.473 | – | – | – | – | – | – | – | – | –
NCI-H520 | 1.41 | 0.976 | 1.17 | 1.11 | – | 0.912 | 0.921 | 0.92 | 0.986 | 0.407 | 0.453 | 0.365 | 0.422 | 0.412 | – | – | – | –
ChaGo-K-1 | 1.19 | 0.905 | 1.05 | 0.956 | – | – | – | – | – | 0.241 | 0.231 | 0.218 | 0.212 | 0.171 | 0.979 | 0.931 | 0.789 | 1.03
LCLC-103H | – | – | – | – | 1.07 | 0.979 | 0.797 | 0.938 | 0.974 | 0.525 | 0.52 | 0.473 | 0.523 | 0.384 | 0.813 | 0.74 | 0.727 | 0.777
NCI-H1650 | 1.7 | 1.17 | 1.14 | 1.28 | – | – | – | – | – | 0.469 | 0.494 | 0.337 | 0.368 | 0.206 | – | – | – | –
